Measured values: ChEMBL document CHEMBL3124844 (J Med Chem, 2014)

Experiments:
[1] = target: T1, Sodium-dependent dopamine transporter (Rattus norvegicus, UniProt P23977); test: Displacement of [3H]WIN35,428 from Sprague-Dawley rat brain DAT after 120 mins by liquid scintillation counting analysis; format: tissue-based
[2] = species on record: Rattus norvegicus; test: Displacement of [3H]nisoxetine from Sprague-Dawley rat brain NET at 100 uM after 180 mins by liquid scintillation counting analysis relative to control; format: tissue-based
[3] = target: Sodium-dependent serotonin transporter (Rattus norvegicus, UniProt P31652); test: Displacement of [3H]citalopram from Sprague-Dawley rat brain SERT after 60 mins by liquid scintillation counting analysis; format: tissue-based
[4] = Displacement of [3H]nisoxetine from Sprague-Dawley rat brain NET after 180 mins by liquid scintillation counting analysis; format: tissue-based
[5] = target: Sodium-dependent serotonin transporter (Rattus norvegicus) (UniProt P31652); test: Displacement of [3H]citalopram from Sprague-Dawley rat brain SERT at 100 uM after 60 mins by liquid scintillation counting analysis relative to control; format: tissue-based
[6] = target: T1, Sodium-dependent dopamine transporter; test: Displacement of [3H]WIN35,428 from rat brain DAT; format: tissue-based
[7] = species on record: Rattus norvegicus; test: Selectivity ratio of Ki for Sprague-Dawley rat brain SERT to Ki for Sprague-Dawley rat brain DAT

T1 sequence (P23977 whole entry): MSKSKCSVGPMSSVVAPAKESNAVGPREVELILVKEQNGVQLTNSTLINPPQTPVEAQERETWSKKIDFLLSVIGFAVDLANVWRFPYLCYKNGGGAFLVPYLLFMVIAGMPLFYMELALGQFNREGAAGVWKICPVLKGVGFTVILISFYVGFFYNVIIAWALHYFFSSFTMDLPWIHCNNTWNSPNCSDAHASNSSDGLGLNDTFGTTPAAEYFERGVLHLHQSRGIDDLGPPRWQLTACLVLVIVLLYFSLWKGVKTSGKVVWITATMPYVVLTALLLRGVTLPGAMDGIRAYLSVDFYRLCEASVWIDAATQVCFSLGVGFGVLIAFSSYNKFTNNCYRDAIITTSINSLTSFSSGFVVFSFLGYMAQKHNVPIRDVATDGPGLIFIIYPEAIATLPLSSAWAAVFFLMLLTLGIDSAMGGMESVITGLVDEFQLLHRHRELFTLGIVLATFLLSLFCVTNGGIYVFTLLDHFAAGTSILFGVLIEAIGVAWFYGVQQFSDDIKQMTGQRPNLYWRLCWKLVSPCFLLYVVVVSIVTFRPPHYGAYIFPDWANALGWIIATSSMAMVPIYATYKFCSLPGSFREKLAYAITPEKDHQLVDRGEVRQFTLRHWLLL
Chain of Sodium-dependent serotonin transporter (Rattus norvegicus) (P31652 whole entry): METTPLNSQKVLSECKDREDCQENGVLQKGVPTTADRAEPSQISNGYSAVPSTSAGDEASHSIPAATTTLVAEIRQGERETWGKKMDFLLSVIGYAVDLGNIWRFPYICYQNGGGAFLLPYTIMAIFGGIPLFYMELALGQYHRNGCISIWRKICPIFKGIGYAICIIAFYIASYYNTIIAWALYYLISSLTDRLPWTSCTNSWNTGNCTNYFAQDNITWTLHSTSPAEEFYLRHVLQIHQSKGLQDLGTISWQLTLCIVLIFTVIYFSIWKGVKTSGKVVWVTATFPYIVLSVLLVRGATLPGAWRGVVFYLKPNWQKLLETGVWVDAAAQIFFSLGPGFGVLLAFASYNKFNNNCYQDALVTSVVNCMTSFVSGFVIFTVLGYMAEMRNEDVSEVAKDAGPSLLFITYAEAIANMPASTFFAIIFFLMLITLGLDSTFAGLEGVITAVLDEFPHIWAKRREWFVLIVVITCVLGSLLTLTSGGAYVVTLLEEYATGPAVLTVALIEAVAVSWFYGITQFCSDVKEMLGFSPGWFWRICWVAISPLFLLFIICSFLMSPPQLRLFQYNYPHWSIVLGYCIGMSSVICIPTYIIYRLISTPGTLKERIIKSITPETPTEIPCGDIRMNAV
Chain of Sodium-dependent serotonin transporter (P31652 whole entry): as above

O=C(CSC(c1ccccc1)c1ccccc1)NCC1CC1
Ki [1]: 13.6 µM
inhibition [2]: < 50%
Ki [3]: 20.5 µM

CCCNC(=O)CSC(c1ccc(F)cc1)c1ccc(F)cc1
Ki [4]: 59.7 µM
Ki [3]: 44.2 µM

NCC[S+]([O-])C(c1ccccc1)c1ccccc1 (stereo not given)
Ki [3]: 3.38 µM

O=C(CSC(c1ccc(Br)cc1)c1ccc(Br)cc1)NCC1CC1
Ki [1]: 0.975 µM
inhibition [2]: < 50%
Ki [3]: 7.03 µM

C=CCNC(=O)CSC(c1ccccc1)c1ccccc1
inhibition [5]: < 50%
Ki [4]: 171 µM
Ki [1]: 8.37 µM
inhibition [2]: < 50%
Ki [3]: 303 µM

CCCNC(=O)CSC(c1ccc(Br)cc1)c1ccc(Br)cc1
Ki [4]: 10.6 µM

[O-][S+](CCNCCCc1ccccc1)C(c1ccc(F)cc1)c1ccc(F)cc1 (stereo not given)
Ki [1]: 0.183 µM
Ki [3]: 1.28 µM

NC(=O)C[S+]([O-])C(c1ccccc1)c1cccc(Br)c1 (racemic)
inhibition [5]: < 50%
inhibition [2]: < 50%

CCCCNCC[S+]([O-])C(c1ccccc1)c1ccccc1 (stereo not given)
Ki [4]: 138 µM
Ki [3]: 63.6 µM

NCCSC(c1ccccc1)c1ccccc1
Ki [3]: 0.221 µM

CC(=O)N1[C@@H]2CC[C@H]1C[C@H](OC(c1ccc(F)cc1)c1ccc(F)cc1)C2
Ki [6]: 2.34 µM

CCCNC(=O)CSC(c1ccc(Cl)cc1)c1ccc(Cl)cc1
Ki [3]: 10.1 µM

CCCNC(=O)CSC(c1ccccc1)c1ccccc1
inhibition [5]: < 50%
Ki [4]: 68 µM
Ki [3]: 419 µM

Cc1ccc(C(c2ccc(C)cc2)[S+]([O-])CC(N)=O)cc1 (stereo not given)
inhibition [5]: < 50%
inhibition [2]: < 50%

NC(=O)C[S+]([O-])C(c1cccc(F)c1)c1cccc(F)c1 (stereo not given)
inhibition [5]: < 50%
Ki [1]: 5.93 µM
inhibition [2]: < 50%

CNC(=O)CSC(c1ccccc1)c1ccccc1
Ki [3]: 656 µM

O=C(CSC(c1ccccc1)c1ccccc1)NCCCCc1ccccc1
inhibition [5]: < 50%

NC(=O)CSC(c1cccc(Cl)c1)c1cccc(Cl)c1
inhibition [5]: < 50%
Ki [4]: 45.4 µM
Ratio Ki [7]: > 2900
Ki [3]: 808 µM

NC(=O)CSC(c1ccccc1)c1ccccc1
Ki [4]: 285 µM
inhibition [2]: < 50%

CNC(=O)C[S+]([O-])C(c1ccccc1)c1ccccc1 (stereo not given)
inhibition [5]: < 50%
Ki [1]: 13.1 µM
inhibition [2]: < 50%

c1ccc(CCCNCCSC(c2ccccc2)c2ccccc2)cc1
Ki [4]: 5.5 µM
Ki [3]: 0.927 µM

CNC(=O)CSC(c1ccc(Br)cc1)c1ccc(Br)cc1
Ki [4]: 11 µM

O=C(CSC(c1ccc(Br)cc1)c1ccc(Br)cc1)NCCCc1ccccc1
Ki [4]: 35.5 µM
Ki [1]: 0.238 µM

O=C(C[S+]([O-])C(c1ccc(Br)cc1)c1ccc(Br)cc1)NCCCc1ccccc1 (stereo not given)
inhibition [2]: < 50%
Ki [3]: 0.892 µM

O=C(CSC(c1ccc(F)cc1)c1ccc(F)cc1)NCC1CC1
Ki [1]: 6.7 µM
Ki [3]: 34 µM

[O-][S+](CCNCCCc1ccccc1)C(c1ccc(Br)cc1)c1ccc(Br)cc1 (stereo not given)
Ki [4]: 8.65 µM
Ki [1]: 1.27 µM
Ki [3]: 0.557 µM

CCCCNC(=O)CSC(c1ccccc1)c1ccccc1
inhibition [5]: < 50%
inhibition [2]: < 50%

O=C(CSC(c1ccc(F)cc1)c1ccc(F)cc1)NCCCc1ccccc1
inhibition [2]: < 50%
Ki [3]: 3.5 µM

NC(=O)C[S+]([O-])C(c1cccc(Cl)c1)c1cccc(Cl)c1 (stereo not given)
inhibition [5]: < 50%
inhibition [2]: < 50%

CCCCNCCSC(c1ccccc1)c1ccccc1
Ki [4]: 11.5 µM
Ki [1]: 0.31 µM
Ki [3]: 5.7 µM

[O-][S+](CCNCCCc1ccccc1)C(c1ccc(Cl)cc1)c1ccc(Cl)cc1 (stereo not given)
Ki [4]: 5.67 µM
Ki [1]: 0.645 µM
Ki [3]: 0.553 µM

CNC(=O)CSC(c1ccc(Cl)cc1)c1ccc(Cl)cc1
Ki [3]: 10.7 µM

O=C(CSC(c1ccc(Br)cc1)c1ccc(Br)cc1)NCCCCc1ccccc1
inhibition [5]: < 50%
inhibition [2]: < 50%
